Measured values taken from PMC7091493 (Journal of medicinal chemistry, 2019).

Target: Mtb20S (Mycobacterium tuberculosis, UniProt P9WHT9)
Format: biochemical

Chain of Mtb20S (P9WHT9 58-291): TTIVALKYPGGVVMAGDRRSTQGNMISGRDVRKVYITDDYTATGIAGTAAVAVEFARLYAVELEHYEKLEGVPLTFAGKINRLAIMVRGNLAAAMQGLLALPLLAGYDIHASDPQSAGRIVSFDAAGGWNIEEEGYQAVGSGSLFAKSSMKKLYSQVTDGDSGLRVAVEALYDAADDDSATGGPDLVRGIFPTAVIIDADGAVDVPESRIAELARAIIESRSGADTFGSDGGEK

Compound: Cc1cc(C(=O)N[C@@H](CC(=O)N2CCC[C@@H]2c2ccccc2)C(=O)N[C@@H](C)c2ncc(-c3ccccc3F)[nH]2)no1 [B6]
- improved potency against Mtb20S: 10 fold
